Experimental data from patent US8802700B2 (Vertex Pharmaceuticals Incorporated, priority 2010, dated 2014).

Target: T1, ΔF508-CFTR (Homo sapiens, UniProt P13569, DEL508-508)
T1 construct: expressed in transfected cells
Experiment: Membrane potential optical assay (FRET voltage-sensor dyes, VIPR), identification of potentiator compounds
Assay type: cell-based
Conditions: Table 3, assay not given; for Emax: read-out: % Activity (% Efficacy, relative efficacy)
Procedure, shortened: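 NIH3T3 mouse fibroblasts stably expressing ΔF508-CFTR, cultured 24 h at 27 °C, were loaded with FRET voltage dyes CC2-DMPE and DiSBAC2(3). Double-addition format: first addition of Cl⁻-free (gluconate) medium with or without compound; membrane-potential change read as fluorescence on VIPR II.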

T1 sequence (P13569 with tags, fused parts or gaps DEL508-508): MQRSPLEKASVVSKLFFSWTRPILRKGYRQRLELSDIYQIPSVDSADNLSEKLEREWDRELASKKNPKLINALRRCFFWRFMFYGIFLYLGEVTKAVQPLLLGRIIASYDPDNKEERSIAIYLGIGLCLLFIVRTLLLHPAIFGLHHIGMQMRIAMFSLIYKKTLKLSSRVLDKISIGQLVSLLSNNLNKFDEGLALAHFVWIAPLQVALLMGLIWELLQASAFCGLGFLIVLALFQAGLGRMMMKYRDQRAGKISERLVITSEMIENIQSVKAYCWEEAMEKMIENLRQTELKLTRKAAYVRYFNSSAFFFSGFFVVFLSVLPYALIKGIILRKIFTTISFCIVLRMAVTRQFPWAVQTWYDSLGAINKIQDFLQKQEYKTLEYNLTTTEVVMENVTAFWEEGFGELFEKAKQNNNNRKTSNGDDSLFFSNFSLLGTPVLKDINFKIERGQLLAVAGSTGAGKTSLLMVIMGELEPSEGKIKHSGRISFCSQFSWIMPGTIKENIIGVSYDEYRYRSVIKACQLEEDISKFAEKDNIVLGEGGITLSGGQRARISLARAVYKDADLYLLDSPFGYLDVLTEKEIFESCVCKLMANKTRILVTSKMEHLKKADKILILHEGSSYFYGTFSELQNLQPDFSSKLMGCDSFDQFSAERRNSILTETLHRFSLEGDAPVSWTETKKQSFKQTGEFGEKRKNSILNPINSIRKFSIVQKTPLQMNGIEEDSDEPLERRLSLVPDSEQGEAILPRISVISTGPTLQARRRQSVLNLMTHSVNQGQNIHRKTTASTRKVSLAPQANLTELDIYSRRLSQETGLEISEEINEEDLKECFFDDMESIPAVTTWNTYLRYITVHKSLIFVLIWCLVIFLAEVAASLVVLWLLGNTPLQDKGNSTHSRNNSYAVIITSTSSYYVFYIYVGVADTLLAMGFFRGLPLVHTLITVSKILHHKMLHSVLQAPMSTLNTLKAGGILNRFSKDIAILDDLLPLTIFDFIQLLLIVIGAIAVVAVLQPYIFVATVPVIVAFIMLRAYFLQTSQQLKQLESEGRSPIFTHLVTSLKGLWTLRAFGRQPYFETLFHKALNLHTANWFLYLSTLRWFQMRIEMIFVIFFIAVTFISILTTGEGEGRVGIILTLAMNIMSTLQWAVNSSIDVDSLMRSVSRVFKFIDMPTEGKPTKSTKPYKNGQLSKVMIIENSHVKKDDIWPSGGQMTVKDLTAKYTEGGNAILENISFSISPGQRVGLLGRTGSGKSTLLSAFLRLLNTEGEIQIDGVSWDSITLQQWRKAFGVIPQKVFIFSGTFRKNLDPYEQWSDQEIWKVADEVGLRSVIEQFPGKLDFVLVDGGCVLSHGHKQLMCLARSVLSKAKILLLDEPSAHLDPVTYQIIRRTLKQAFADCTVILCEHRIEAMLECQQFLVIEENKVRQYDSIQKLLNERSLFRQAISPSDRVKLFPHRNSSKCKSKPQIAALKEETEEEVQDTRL

SMILES	Emax [%]	EC50 [µM]
CCc1cc(C(C)(C)C)c(O)cc1NC(=O)c1c[nH]c2ccc(F)cc2c1=O [Compound 649, N-(2-ethyl-5-hydroxy-4-tert-butyl-phenyl)-6-fluoro-4-oxo-1H-quinoline-3-carboxamide]	25 to 100	–
O=C(Nc1ccc(Oc2ccccc2)cc1)c1c[nH]c2ccccc2c1=O [Compound 267, 4-oxo-N-(4-phenoxyphenyl)-1H-quinoline-3-carboxamide]	25 to 100	–
COc1ccccc1NC(=O)c1c[nH]c2ccccc2c1=O [Compound 80, N-(2-methoxyphenyl)-4-oxo-1H-quinoline-3-carboxamide]	25 to 100	–
N#CCc1ccccc1NC(=O)c1c[nH]c2ccccc2c1=O [Compound 308, N-[2-(cyanomethyl)phenyl]-4-oxo-1H-quinoline-3-carboxamide]	25 to 100	–
CC(C)(C)c1ccc(NC(=O)c2c[nH]c3ccccc3c2=O)cc1N [Compound 271, N-(3-amino-4-tert-butyl-phenyl)-4-oxo-1H-quinoline-3-carboxamide]	25 to 100	–
Cc1cccc(C)c1NC(=O)c1c[nH]c2ccccc2c1=O [Compound 315, N-(2,6-dimethylphenyl)-4-oxo-1H-quinoline-3-carboxamide]	25 to 100	–
CC(C)c1cccc(-c2ccccc2NC(=O)c2c[nH]c3ccccc3c2=O)c1 [Compound 290, N-[2-(3-isopropylphenyl)phenyl]-4-oxo-1H-quinoline-3-carboxamide]	25 to 100	–
COc1ccc(C(C)C)cc1-c1ccccc1NC(=O)c1c[nH]c2ccccc2c1=O [Compound 59, N-[2-(5-isopropyl-2-methoxy-phenyl)phenyl]-4-oxo-1H-quinoline-3-carboxamide]	> 100	–
Nc1cc(NC(=O)c2c[nH]c3ccccc3c2=O)ccc1Cl [Compound 453, N-(3-amino-4-chloro-phenyl)-4-oxo-1H-quinoline-3-carboxamide]	25 to 100	–
Cc1cccc(-c2ccccc2NC(=O)c2c[nH]c3ccccc3c2=O)c1C [Compound 401, N-[2-(2,3-dimethylphenyl)phenyl]-4-oxo-1H-quinoline-3-carboxamide]	25 to 100	–
O=C(Nc1cccc(Oc2ccccc2)c1)c1c[nH]c2ccccc2c1=O [Compound 87, 4-oxo-N-(3-phenoxyphenyl)-1H-quinoline-3-carboxamide]	25 to 100	–
O=C(Nc1cnccn1)c1c[nH]c2ccccc2c1=O [Compound 219, 4-oxo-N-pyrazin-2-yl-1H-quinoline-3-carboxamide]	< 25	–
O=C(Nc1ccccc1-c1cccc(OC(F)(F)F)c1)c1c[nH]c2ccccc2c1=O [Compound 253, 4-oxo-N-[2-[3-(trifluoromethoxy)phenyl]phenyl]-1H-quinoline-3-carboxamide]	25 to 100	–
CC(C)c1cc(C(F)(F)F)c(NC(=O)c2c[nH]c3ccccc3c2=O)cc1O [Compound 497, N-[5-hydroxy-4-isopropyl-2-(trifluoromethyl)phenyl]-4-oxo-1H-quinoline-3-carboxamide]	> 100	–
CC(C)(C)c1c[nH]c2cc(NC(=O)c3c[nH]c4ccc(F)cc4c3=O)ccc12 [Compound 554, 6-fluoro-4-oxo-N-(3-tert-butyl-1H-indol-6-yl)-1H-quinoline-3-carboxamide]	25 to 100	–
CC(C)(C)c1cc(C(C)(C)C)c(NC(=O)c2c[nH]c3ccc(C(F)(F)F)cc3c2=O)cc1O [Compound 515, N-(5-hydroxy-2,4-ditert-butyl-phenyl)-4-oxo-6-(trifluoromethyl)-1H-quinoline-3-carboxamide]	< 25	10 to 25
CC(C)(C)c1cc(C(C)(C)C)c(NC(=O)c2c[nH]c3c(Cl)cccc3c2=O)cc1O [Compound 663, 8-chloro-N-(5-hydroxy-2,4-ditert-butyl-phenyl)-4-oxo-1H-quinoline-3-carboxamide]	25 to 100	–
CC(C)(C)c1cc2cc[nH]c2cc1NC(=O)c1c[nH]c2ccc(S(=O)(=O)N3CCCC3)cc2c1=O [Compound 274, 4-oxo-6-pyrrolidin-1-ylsulfonyl-N-(5-tert-butyl-1H-indol-6-yl)-1H-quinoline-3-carboxamide]	25 to 100	–
CC(C)c1ccc(NC(=O)c2c[nH]c3ccc(Cl)cc3c2=O)c(C(F)(F)F)c1 [Compound 657, 6-chloro-N-[4-isopropyl-2-(trifluoromethyl)phenyl]-4-oxo-1H-quinoline-3-carboxamide]	25 to 100	–
O=C(Nc1ccc2cc[nH]c2c1)c1cnc2ccc(Cl)cc2c1O [Compound 358, 6-chloro-4-hydroxy-N-(1H-indol-6-yl)quinoline-3-carboxamide]	25 to 100	–
O=C(Nc1cccc2cccnc12)c1c[nH]c2ccccc2c1=O [Compound 241, 4-oxo-N-(8-quinolyl)-1H-quinoline-3-carboxamide]	25 to 100	–
Cc1c[nH]c2cccc(NC(=O)c3c[nH]c4ccccc4c3=O)c12 [Compound 338, N-(3-methyl-1H-indol-4-yl)-4-oxo-1H-quinoline-3-carboxamide]	25 to 100	–

SMILES	Emax [%]	EC50 [µM]
CCc1ccc(NC(=O)c2c[nH]c3ccccc3c2=O)cc1N [Compound 8, N-(3-amino-4-ethyl-phenyl)-4-oxo-1H-quinoline-3-carboxamide]	25 to 100	–
O=C(Nc1ccc(C23CC4CC(CC(C4)C2)C3)cc1)c1c[nH]c2ccccc2c1=O [Compound 455, N-[4-(1-adamantyl)phenyl]-4-oxo-1H-quinoline-3-carboxamide]	25 to 100	–
O=C(Nc1ccc2c(c1)NCCCC2)c1c[nH]c2ccccc2c1=O [Compound 10, 1,4-dihydro-N-(2,3,4,5-tetrahydro-1H-benzo[b]azepin-8-yl)-4-oxoquinoline-3-carboxamide]	25 to 100	–
Cc1ccc(N)cc1NC(=O)c1c[nH]c2ccccc2c1=O [Compound 94, N-(5-Amino-2-methyl-phenyl)-4-oxo-1H-quinoline-3-carboxamide]	25 to 100	–
Cc1cccc2[nH]cc(C(=O)Nc3ccc(N4CCC[C@@H]4C)nc3C(F)(F)F)c(=O)c12 [Compound 581, (S)-5-methyl-N-(6-(2-methylpyrrolidin-1-yl)-2-(trifluoromethyl)pyridin-3-yl)-4-oxo-1,4-dihydroquinoline-3-carboxamide]	25 to 100	–
CCCc1ccc(NC(=O)c2c[nH]c3ccccc3c2=O)cc1 [Compound 226, 4-oxo-N-(4-propylphenyl)-1H-quinoline-3-carboxamide]	25 to 100	< 10
CC(=O)N1CCC2(CCN(C(=O)OC(C)(C)C)CC2)c2ccc(NC(=O)c3c[nH]c4ccccc4c3=O)cc21 [Compound 334, 7′-[(4-oxo-1H-quinolin-3-ylcarbonyl)amino]-spiro[piperidine-4,4′(1′H)-1-acetyl-quinoline], 2′,3′-dihydro-carboxylic acid tert-butyl ester]	25 to 100	–
O=C(Nc1cccc2[nH]ccc12)c1c[nH]c2ccccc2c1=O [Compound 100, N-(1H-indol-4-yl)-4-oxo-1H-quinoline-3-carboxamide]	< 25	–
CC(C)(C)c1cc(C(C)(C)C)c(NC(=O)c2c[nH]c3c(C#N)cccc3c2=O)cc1O [Compound 505, 8-cyano-N-(5-hydroxy-2,4-ditert-butyl-phenyl)-4-oxo-1H-quinoline-3-carboxamide]	< 25	–
Cc1cccc2[nH]cc(C(=O)Nc3ccc(OC4CCCC4)cc3C(F)(F)F)c(=O)c12 [Compound 595, N-[4-cyclopentoxy-2-(trifluoromethyl)phenyl]-5-methyl-4-oxo-1H-quinoline-3-carboxamide]	25 to 100	–
O=C(Nc1ccc2cn[nH]c2c1)c1c[nH]c2ccccc2c1=O [Compound 284, N-(1H-indazol-6-yl)-4-oxo-1H-quinoline-3-carboxamide]	25 to 100	–
O=C(Nc1ccc(OC(F)F)cc1)c1c[nH]c2ccccc2c1=O [Compound 360, N-[4-(difluoromethoxy)phenyl]-4-oxo-1H-quinoline-3-carboxamide]	25 to 100	–
CCCCOC(=O)NCC(C)(C)c1ccc(NC(=O)c2c[nH]c3ccccc3c2=O)cc1 [Compound 460, [2-methyl-2-[4-[(4-oxo-1H-quinolin-3-yl)carbonylamino]phenyl]-propyl]aminoformic acid butyl ester]	25 to 100	–
CC(C)c1ccc(N)cc1NC(=O)c1c[nH]c2ccccc2c1=O [Compound 101, N-(5-amino-2-isopropyl-phenyl)-4-oxo-1H-quinoline-3-carboxamide]	25 to 100	–
C[S+]([O-])c1ccc(-c2ccccc2NC(=O)c2c[nH]c3ccccc3c2=O)cc1 (stereo not shown) [Compound 134, N-[2-(4-methylsulfinylphenyl)phenyl]-4-oxo-1H-quinoline-3-carboxamide]	25 to 100	–
CC(=O)c1ccc(-c2ccccc2NC(=O)c2c[nH]c3ccccc3c2=O)s1 [Compound 174, N-[2-(5-acetyl-2-thienyl)phenyl]-4-oxo-1H-quinoline-3-carboxamide]	25 to 100	–
O=C(Nc1ccc2ncccc2c1)c1c[nH]c2ccccc2c1=O [Compound 280, 4-oxo-N-(6-quinolyl)-1H-quinoline-3-carboxamide]	< 25	–
CCCOc1ccc(NC(=O)c2c[nH]c3ccccc3c2=O)cc1N [Compound 368, N-(3-amino-4-propoxy-phenyl)-4-oxo-1H-quinoline-3-carboxamide]	25 to 100	–
CCCOC(=O)NCC(C)(C)c1ccc(NC(=O)c2c[nH]c3ccccc3c2=O)cc1 [Compound 416, [2-methyl-2-[4-[(4-oxo-1H-quinolin-3-yl)carbonylamino]phenyl]-propyl]aminoformic acid propyl ester]	25 to 100	–
CC(C)(C)c1ccc(NC(=O)c2c[nH]c3ccccc3c2=O)cc1F [Compound 645, N-(3-fluoro-4-tert-butyl-phenyl)-4-oxo-1H-quinoline-3-carboxamide]	25 to 100	–
O=C(Nc1ccc2[nH]c(=O)oc2c1)c1c[nH]c2ccccc2c1=O [Compound 152, 4-oxo-N-(2-oxo-3H-benzooxazol-6-yl)-1H-quinoline-3-carboxamide]	< 25	–
Cc1ccc(NC(=O)c2c[nH]c3ccccc3c2=O)c(F)c1 [Compound 289, N-(2-fluoro-4-methyl-phenyl)-4-oxo-1H-quinoline-3-carboxamide]	25 to 100	–
